Test results taken from PMC6915728 (Nature Communications, 2019).
Like-named read-outs stand apart in the source and are kept apart here.

Tests used:
[1] = system: E. coli K12 BW25113 carrying the pooled ASKA overexpression plasmid library (~4400 ORFs); assay: Chemical-genetic profiling: pooled competitive growth of the ASKA gene-overexpression library with and without AMP, deep sequencing readout; assay type: cell-based, Escherichia coli; details: overexpressed gene aaaD; presence vs absence of AMP; average of biological replicates
Text: We generated chemical-genetic interaction profiles for a diverse set of AMPs (Table 1) by screening them against a comprehensive library of gene overexpressions in E. coli[21]. Increasing gene dosage is a widely applied approach to reveal the targets of small-molecule antibiotics[22],[23]. It also informs on the ‘latent resistome’, that is, the collection of genes where a change from native expression level enhances resistance to a particular drug[24]. We applied a sensitive competition assay by monitoring growth of a pooled plasmid library, overexpressing all the E. coli ORFs (Fig. 1a), as we reported earlier. Specifically, E. coli cells carrying the pooled plasmid collection were grown in the presence or absence of one of the 15 AMPs tested, at a sub-inhibitory concentration that increased the doubling time of the whole population by 2-fold. Following 12 generations of growth, the plasmid pool was isolated from each selection and the relative abundance of each plasmid was determined by a deep sequencing readout (see Methods).
We carried out chemical-genetic profiling to determine the impact of the overexpression of each E. coli ORF on bacterial susceptibility to each of the 15 different AMPs. To this end, we used the complete set of E. coli K-12 Open Reading Frame Archive (ASKA) plasmid library (GFP minus) where each E. coli ORF is cloned into a high copy number expression plasmid (pCA24N-ORFGFP(-)). Prior to screening, the ASKA library was grown in the original host strain E. coli K-12 AG1 in 96-well plates (growth conditions: 37 °C, 280 rpm, LB medium). An equal aliquot of each member of the ASKA library (each well of the 96-well plates) was pooled together and the plasmid DNA (pCA24N-ORF-GFP(-)) was isolated and transformed into E. coli K12 BW25113 strain[51]. To obtain a negative control strain not having any overexpressed gene, the plasmid without a cloned ORF (pCA24N-noORF) was also transformed into the same E. coli strain. Then, on the pooled collection, we applied a previously reported competitive growth assay. Specifically, the pooled overexpression library and the control strain were grown in parallel in MS medium supplemented with 20 µg per ml chloramphenicol and the overexpression was induced by 100 µM isopropyl-ß-D-thiogalactopyranoside (IPTG). After 1 h induction, ~5 × 10^5 bacterial cells from the library were inoculated into each well of a 96-well microtiter plate containing a concentration gradient of an AMP in the MS medium supplemented with 20 µg per ml chloramphenicol and 100 µM IPTG. At the same time, both the library and the control strain with the empty plasmid were grown in the absence of any AMPs. We took special care to grow both of these samples in the exact same conditions as the samples in the presence of AMPs. Bacterial growth was monitored in a microplate reader (Biotek Synergy 2) for 24 h. At the end of the exponential growth phase, we selected those wells in which the doubling time of the cell population was increased by 2-fold. Then, from these wells, cells were split into four equal proportion and each was transferred into 20 mL of MS medium supplemented with the corresponding AMP in four different concentrations in the range that slowed down growth by two-fold in the microtitre plate. […] The rationale for this 2-step process was to maintain competition in exponential phase for 12 generations of growth, efficiently control the growth rate in a reproducible manner and obtain the plasmid pool with standard DNA isolation protocol (innuPREP plasmid mini Kit, Analytik Jena AG) in a yield that is enough for the downstream analysis. The cultures were vigorously shaken along the entire protocol to make sure that the cultures are completely homogeneous and therefore biasing interactions between clones (such as trans-resistance) was minimized. […]

[2] = system: E. coli BW25113 overexpression strains (ASKA plasmids); assay: Minimum inhibitory concentration (MIC), serial broth dilution, single-gene overexpression strains vs empty-vector control; assay type: cell-based, Escherichia coli; details: broth dilution, MS medium, 100 µM IPTG, 30 °C, 20-24 h, OD600, 3 replicates
Experimental: Minimum inhibitory concentrations (MIC) were determined with a standard serial broth dilution technique with a minor modification. Specifically, instead of a two-fold dilution series, smaller AMP concentration steps were used (typically 1.2-fold) for two reasons. […] Second, gene overexpressions caused typically only small changes in the MICs of AMPs and therefore higher resolution was required. The protocol was as follows. From a stock solution of an AMP, 12-steps serial dilution was prepared in fresh MS medium in 96-well microtiter plates. Each AMP was represented in 11 different concentrations (3 wells per AMP concentration per strain). Three wells contained only medium to check the growth in the absence of AMP. After overnight growth in MS medium supplemented with chloramphenicol, bacterial strains were diluted 20-fold into fresh MS medium and grown until the cell density reached OD600 ~1. Cells were induced by 100 µM of IPTG and incubated for 1 h at 30 °C with continuous shaking at 300 rpm. Following incubation, approximately half-million cells were inoculated into the wells of the 96-well microtiter plate with a 96‐pin replicator. We used three independent replicates for each strain and the corresponding control. Two rows in the 96-well plate contained only MS medium in order to obtain the background OD value of the medium. Plates were incubated at 30 °C with continuous shaking at 300 rpm. After 20–24 h of incubation, OD600 values were measured in a microplate reader (Biotek Synergy 2).

[3] = system: E. coli gene overexpression; details: gene prfA overexpressed; ref 11 (Matsumoto et al. 2017); cited from earlier work
Text: Supplement 41467_2019_13618_MOESM1_ESM.docx, table 1: Supplementary Table 1. Collected examples of E. coli gene overexpression from the literature as a confirmation of our chemical-genetic screen results. | column: Overexpression phenotype

[4] = system: AMP-evolved E. coli lines; details: ref Spohn et al 2019, cited from earlier work
Text: Supplement 41467_2019_13618_MOESM13_ESM.xlsx, sheet "Figure 6 and S15" | column: A comprehensive dataset of antimicrobial susceptibility of AMP-adapted lines to antimicrobial peptides (AMPs).

bacterial membrane = details: literature mining; ref superscript numbers in the cell, listed in Supplementary Data 7 sheet References; cited from earlier work
Text: Supplement 41467_2019_13618_MOESM10_ESM.xlsx, sheet "AMP details" | column: Pore formation

[5] = overexpression strain mlaD, MIC of the overexpression strain / MIC of the control strain (wild-type carrying the empty plasmid)

## GNNRPVYIPQPRPPHPRL [AP, Apidaecin IB, antimicrobial peptide, source Apis mellifera L; cluster C3]
[1]
  Chemical-genetic score: -0.578 log2 fold change
[2]; overexpression strain cvpA, MIC of overexpression strain / MIC of empty-plasmid control
  Relative MIC: 0.64
[2]; overexpression strain gadW, MIC of overexpression strain / MIC of empty-plasmid control
  Relative MIC: 2.5
[2]; overexpression strain lptB, MIC of overexpression strain / MIC of empty-plasmid control
  Relative MIC: 0.64
[2]; [5]
  Relative MIC: 0.6
[3]
  Overexpression phenotype, Literature: Resistance^11

## GWGSFFKKAAHVGKHVGKAALTHYL [PLEU, Pleurocidin, antimicrobial peptide from Pleuronectes americanus; cluster C2]
[2]; [5]
  Relative MIC: 1
[2]; overexpression strain nikB, MIC of overexpression strain / MIC of empty-plasmid control
  Relative MIC: 0.8
[4]; AMP-adapted line BAC5_3
  Relative change in MIC (MIC of the AMP-adpated line / MIC of the ancestral strain): 1
[4]; AMP-adapted line BAC5_5
  Relative change in MIC (MIC of the AMP-adpated line / MIC of the ancestral strain): 0.8
[4]; AMP-adapted line BAC5_7
  Relative change in MIC (MIC of the AMP-adpated line / MIC of the ancestral strain): 1
[4]; AMP-adapted line BAC5_10
  Relative change in MIC (MIC of the AMP-adpated line / MIC of the ancestral strain): 1
[4]; AMP-adapted line CAP18_2
  Relative change in MIC (MIC of the AMP-adpated line / MIC of the ancestral strain): 2.1
[4]; AMP-adapted line CAP18_5
  Relative change in MIC (MIC of the AMP-adpated line / MIC of the ancestral strain): 2.5
[4]; AMP-adapted line CAP18_6
  Relative change in MIC (MIC of the AMP-adpated line / MIC of the ancestral strain): 2.3
[4]; AMP-adapted line CAP18_8
  Relative change in MIC (MIC of the AMP-adpated line / MIC of the ancestral strain): 1.7
[4]; AMP-adapted line CAP18_10
  Relative change in MIC (MIC of the AMP-adpated line / MIC of the ancestral strain): 4.3
[4]; AMP-adapted line HBD3_3
  Relative change in MIC (MIC of the AMP-adpated line / MIC of the ancestral strain): 1.3
[4]; AMP-adapted line HBD3_6
  Relative change in MIC (MIC of the AMP-adpated line / MIC of the ancestral strain): 1.7
[4]; AMP-adapted line HBD3_8
  Relative change in MIC (MIC of the AMP-adpated line / MIC of the ancestral strain): 1.7
[4]; AMP-adapted line HBD3_10
  Relative change in MIC (MIC of the AMP-adpated line / MIC of the ancestral strain): 1.3
[4]; AMP-adapted line LL37_1
  Relative change in MIC (MIC of the AMP-adpated line / MIC of the ancestral strain): 1.4
[4]; AMP-adapted line LL37_3
  Relative change in MIC (MIC of the AMP-adpated line / MIC of the ancestral strain): 1.2
[4]; AMP-adapted line LL37_6
  Relative change in MIC (MIC of the AMP-adpated line / MIC of the ancestral strain): 1.4
[4]; AMP-adapted line LL37_7
  Relative change in MIC (MIC of the AMP-adpated line / MIC of the ancestral strain): 64
[4]; AMP-adapted line LL37_10
  Relative change in MIC (MIC of the AMP-adpated line / MIC of the ancestral strain): 1.6
[4]; AMP-adapted line PEX_1
  Relative change in MIC (MIC of the AMP-adpated line / MIC of the ancestral strain): 2.3
[4]; AMP-adapted line PEX_4
  Relative change in MIC (MIC of the AMP-adpated line / MIC of the ancestral strain): 2.3
[4]; AMP-adapted line PEX_5
  Relative change in MIC (MIC of the AMP-adpated line / MIC of the ancestral strain): 1.4
[4]; AMP-adapted line PEX_6
  Relative change in MIC (MIC of the AMP-adpated line / MIC of the ancestral strain): 2.8
[4]; AMP-adapted line PEX_7
  Relative change in MIC (MIC of the AMP-adpated line / MIC of the ancestral strain): 1.7
[4]; AMP-adapted line PR39_1
  Relative change in MIC (MIC of the AMP-adpated line / MIC of the ancestral strain): 1.4
[4]; AMP-adapted line PR39_2
  Relative change in MIC (MIC of the AMP-adpated line / MIC of the ancestral strain): 1.1
[4]; AMP-adapted line PR39_5
  Relative change in MIC (MIC of the AMP-adpated line / MIC of the ancestral strain): 1
[4]; AMP-adapted line PR39_7
  Relative change in MIC (MIC of the AMP-adpated line / MIC of the ancestral strain): 0.9
[4]; AMP-adapted line PR39_10
  Relative change in MIC (MIC of the AMP-adpated line / MIC of the ancestral strain): 0.9
[4]; AMP-adapted line PROA_2
  Relative change in MIC (MIC of the AMP-adpated line / MIC of the ancestral strain): 1.6
[4]; AMP-adapted line PROA_3
  Relative change in MIC (MIC of the AMP-adpated line / MIC of the ancestral strain): 0.9
[4]; AMP-adapted line PROA_7
  Relative change in MIC (MIC of the AMP-adpated line / MIC of the ancestral strain): 1.1
[4]; AMP-adapted line PROA_8
  Relative change in MIC (MIC of the AMP-adpated line / MIC of the ancestral strain): 1.2
[4]; AMP-adapted line PROA_9
  Relative change in MIC (MIC of the AMP-adpated line / MIC of the ancestral strain): 0.9
[4]; AMP-adapted line PXB_2
  Relative change in MIC (MIC of the AMP-adpated line / MIC of the ancestral strain): 0.9
[4]; AMP-adapted line PXB_5
  Relative change in MIC (MIC of the AMP-adpated line / MIC of the ancestral strain): 1.6
[4]; AMP-adapted line PXB_6
  Relative change in MIC (MIC of the AMP-adpated line / MIC of the ancestral strain): 4.8
[4]; AMP-adapted line PXB_8
  Relative change in MIC (MIC of the AMP-adpated line / MIC of the ancestral strain): 2.1
[4]; AMP-adapted line PXB_10
  Relative change in MIC (MIC of the AMP-adpated line / MIC of the ancestral strain): 6.3
Bacterial membrane
  Pore formation (whether AMP makes pores in the bacterial membrane): Yes18
